Data from ChEMBL document CHEMBL4303084, “Identification of antiviral drug candidates against SARS-CoV-2 from FDA-approved drugs” (2020).
pIC50: −log10 of the molar value. Starred links: 1 amine or outer side, 2 acyl side, 3 side chain; linkers in the order of their positions; H or OH if unused. Positions of bridges follow the written chain, without caps; N, C: chain ends. Non-standard residues stand in square brackets, D forms with d. Residues, ends and D or L forms follow the SMILES beside them. *: point of attachment. pTerphenylCO(4''-OnC5H11) = CCCCCOc1ccc(-c2ccc(-c3ccc(C(=O)*)cc3)cc2)cc1; Orn(4R-OH,5R-OH) = O=C([C@H](C[C@@H](O)[C@@H](O)N[*:3])N[*:1])[*:2]; hTyr(3S-OH,4S-OH) = N[C@H](C(=O)O)[C@H](O)[C@@H](O)c1ccc(O)cc1; Pro(3S-OH,4S-Me) = C[C@H]1CN[C@H](C(=O)O)[C@H]1O; Hyp = O=C(O)[C@@H]1C[C@@H](O)CN1

Key:
[1] = Cell viability measured by CellTiter-Glo assay in Vero cells at MOI 0.05 after 72hr; conditions: chlorocebus sabaeus
SARS-CoV-2 = assay: microbe, parasite or virus in culture; type: functional, organism-based, Chlorocebus sabaeus; conditions: Severe acute respiratory syndrome coronavirus 2, Vero, 24 h
[2] = Selectivity index for antiviral vs cytotoxic activity in Vero cells (CC50/IC50); conditions: monkey, Vero cells

## CC1(C)C=Cc2c(c3c(c4c(=O)c(-c5ccc(O)cc5)coc24)OC(C)(C)CC3)O1
[1]; Vero cells
  CC50 at 72 h: 9.89 µM
SARS-CoV-2
  pIC50: 5.49
[2]
  selectivity ratio: 3.07

## CCC(CC)COC(=O)[C@H](C)N[P@](=O)(OC[C@H]1O[C@@](C#N)(c2ccc3c(N)ncnn23)[C@H](O)[C@@H]1O)Oc1ccccc1
[1]; Vero cells
  CC50 at 72 h: > 25 µM

## CCN1CCN(Cc2ccc(Nc3ncc(F)c(-c4cc(F)c5nc(C)n(C(C)C)c5c4)n3)nc2)CC1 [ABEMACICLIB]
[1]; Vero cells
  CC50 at 72 h: > 50 µM
SARS-CoV-2
  pIC50: 5.18

## CCN(CC)Cc1cc(Nc2ccnc3cc(Cl)ccc23)ccc1O [AMODIAQUINE]
[1]; Vero cells
  CC50 at 72 h: > 50 µM
SARS-CoV-2
  pIC50: 5.29

## CCCCCOc1ccc(-c2ccc(-c3ccc(C(=O)N[C@H]4C[C@@H](O)[C@@H](O)NC(=O)[C@@H]5[C@@H](O)[C@@H](C)CN5C(=O)[C@H]([C@@H](C)O)NC(=O)[C@H]([C@H](O)[C@@H](O)c5ccc(O)cc5)NC(=O)[C@@H]5C[C@@H](O)CN5C(=O)[C@H]([C@@H](C)O)NC4=O)cc3)cc2)cc1 [ANIDULAFUNGIN] ({pTerphenylCO(4''-OnC5H11)}-[Orn(4R-OH,5R-OH)]T[Hyp][hTyr(3S-OH,4S-OH)]T[Pro(3S-OH,4S-Me)]; lactam 1-C)
[1]; Vero cells
  CC50 at 72 h: > 50 µM
SARS-CoV-2
  pIC50: 5.33
[2]
  selectivity ratio: 10.8

## Cc1c(-c2ccc(O)cc2)n(Cc2ccc(OCCN3CCCCCC3)cc2)c2ccc(O)cc12 [BAZEDOXIFENE]
[1]; Vero cells
  CC50 at 72 h: 15 µM

## COc1cc2c3cc1Oc1c(OC)c(OC)cc4c1[C@@H](Cc1ccc(O)c(c1)Oc1ccc(cc1)C[C@@H]3N(C)CC2)N(C)CC4 [BERBAMINE]
[1]; Vero cells
  CC50 at 72 h: > 50 µM
SARS-CoV-2
  pIC50: 5.10
[2]
  selectivity ratio: 6.35

## CN(C)C(=O)COC(=O)Cc1ccc(OC(=O)c2ccc(NC(=N)N)cc2)cc1 [CAMOSTAT]
[1]; Vero cells
  CC50 at 72 h: > 50 µM
SARS-CoV-2
  pIC50: < 4.30

## COc1ccc2cc1Oc1ccc(cc1)C[C@H]1c3c(cc4c(c3Oc3cc5c(cc3OC)CCN(C)[C@@H]5C2)OCO4)CCN1C [CEPHARANTHINE]
[1]; Vero cells
  CC50 at 72 h: > 50 µM
SARS-CoV-2
  pIC50: 5.35
[2]
  selectivity ratio: 11.2

## Cc1cc(Nc2ncc(Cl)c(Nc3ccccc3S(=O)(=O)C(C)C)n2)c(OC(C)C)cc1C1CCNCC1 [CERITINIB]
[1]; Vero cells
  CC50 at 72 h: 6.84 µM
SARS-CoV-2
  pIC50: 5.54
[2]
  selectivity ratio: 2.39

## CCN(CC)CCCC(C)Nc1ccnc2cc(Cl)ccc12 (configuration not stated) [CHLOROQUINE]
[1]; Vero cells
  CC50 at 72 h: > 150 µM

## CC(C)C(=O)OCC(=O)[C@@]12O[C@H](C3CCCCC3)O[C@@H]1C[C@H]1[C@@H]3CCC4=CC(=O)C=C[C@]4(C)[C@H]3[C@@H](O)C[C@@]12C [CICLESONIDE]
[1]; Vero cells
  CC50 at 72 h: > 50 µM
SARS-CoV-2
  pIC50: 5.36
[2]
  selectivity ratio: 11.6

## CCN(CC)CCOc1ccc(C(=C(Cl)c2ccccc2)c2ccccc2)cc1 [CLOMIPHENE]
[1]; Vero cells
  CC50 at 72 h: 15 µM
SARS-CoV-2
  pIC50: 5.27
[2]
  selectivity ratio: 2.8

## C[C@H]1O[C@@H](O[C@H]2[C@@H](O)C[C@H](O[C@H]3[C@@H](O)C[C@H](O[C@H]4CC[C@@]5(C)[C@H](CC[C@@H]6[C@@H]5CC[C@]5(C)[C@@H](C7=CC(=O)OC7)CC[C@]65O)C4)O[C@@H]3C)O[C@@H]2C)C[C@H](O)[C@@H]1O [DIGITOXIN]
[1]; Vero cells
  CC50 at 72 h: > 50 µM
SARS-CoV-2
  pIC50: > 6.64
[2]
  selectivity ratio: 214

## C[C@H]1O[C@@H](O[C@H]2[C@@H](O)C[C@H](O[C@H]3[C@@H](O)C[C@H](O[C@H]4CC[C@@]5(C)[C@H](CC[C@@H]6[C@@H]5C[C@@H](O)[C@]5(C)[C@@H](C7=CC(=O)OC7)CC[C@]65O)C4)O[C@@H]3C)O[C@@H]2C)C[C@H](O)[C@@H]1O [DIGOXIN]
[1]; Vero cells
  CC50 at 72 h: > 50 µM
SARS-CoV-2
  pIC50: 6.72
[2]
  selectivity ratio: 257

## CC(C)=CCCC1(C)C=Cc2c(O)c3c(c(CC=C(C)C)c2O1)OC12C(=CC4CC1C(C)(C)OC2(C/C=C(/C)C(=O)O)C4O)C3=O (configuration not stated) [DIHYDROGAMBOGIC ACID]
[1]; Vero cells
  CC50 at 72 h: 9.85 µM
SARS-CoV-2
  pIC50: 4.87
[2]
  selectivity ratio: 0.74

## CC/C(=C(/c1ccc(OCCN(C)C)cc1)c1cccc(O)c1)c1ccccc1 [DROLOXIFENE]
[1]; Vero cells
  CC50 at 72 h: 15.8 µM
SARS-CoV-2
  pIC50: 5.18
[2]
  selectivity ratio: 2.4

## CCCCc1oc2ccc(NS(C)(=O)=O)cc2c1C(=O)c1ccc(OCCCN(CCCC)CCCC)cc1 [DRONEDARONE]
[1]; Vero cells
  CC50 at 72 h: 8.75 µM
SARS-CoV-2
  pIC50: 5.41
[2]
  selectivity ratio: 2.23

## CC(C)(C)c1ccc(C(=O)CCCN2CCC(OC(c3ccccc3)c3ccccc3)CC2)cc1 [EBASTINE]
[1]; vero
  CC50 at 72 h: 15.4 µM

## CC1=NN(c2ccc(C)c(C)c2)C(=O)/C1=N\Nc1cccc(-c2cccc(C(=O)O)c2)c1O [ELTROMBOPAG]
[1]; Vero cells
  CC50 at 72 h: > 50 µM
SARS-CoV-2
  pIC50: 5.08

## COc1ccc2cc1Oc1ccc(cc1)C[C@H]1c3cc(c(OC)cc3CCN1C)Oc1c(OC)c(OC)cc3c1[C@H](C2)N(C)CC3 [FANCHININ]
[1]; Vero cells
  CC50 at 72 h: 14.9 µM
SARS-CoV-2
  pIC50: 5.52
[2]
  selectivity ratio: 4.97

## CCc1nc(C(N)=O)c(Nc2ccc(N3CCC(N4CCN(C)CC4)CC3)c(OC)c2)nc1NC1CCOCC1 [GILTERITINIB]
[1]; Vero cells
  CC50 at 72 h: 37.2 µM
SARS-CoV-2
  pIC50: 5.17
[2]
  selectivity ratio: 5.5

## Oc1c(Cl)cc(Cl)c(Cl)c1Cc1c(O)c(Cl)cc(Cl)c1Cl [HEXACHLOROPHENE]
[1]; Vero cells
  CC50 at 72 h: 19.3 µM
SARS-CoV-2
  pIC50: 6.05
[2]
  selectivity ratio: 21.6
